Results taken from patent publication US10550171B2, “Immunomodulatory peptides and methods of use thereof” (THE GOVERNORS OF THE UNIVERSITY OF ALBERTA, priority 2012, dated 2020).

Columns and labels:
STAT2 phosphorylation = STAT2 phosphorylation in HFF-1 cells challenged with IL-28B, Western blot; type: cell-based, human; settings: for reduction in STAT2-phosphorylation: HFF-1 cells pre-incubated with peptide 10 μM, washed, IL-28B 100 ng/ml 30 minutes, normalized to STAT2 and β-tubulin; for blocking of STAT-2 phosphorylation: peptide pre-incubated 2 hours with IL-28B, then added to HFF1 for 30 minutes
CMV (Towne strain) = assay: CMV replication plaque assay in HFF-1 cells; type: cell-based, cytomegalovirus (CMV); settings: HFF-1 cells pre-treated 2 h with peptide 10 μM; for inhibitory effect on CMV replication (viral growth curves, plaque assay): CMV Towne MOI 0.03, day 4 and day 6
Description: The data are depicted in FIG. 1. […] HFF-1 cells were pre-treated for 2 h with peptides (10 μM), then washed and infected with CMV (Towne strain, MOI 0.03) and viral growth curves were generated.
Peptides PRT ([…]; SEQ ID NO:23). LKY (ASVTFNLFRLLTRDLKY; SEQ ID NO: 15), and LNC (ASVTFNLFRLLTRDLNC; SEQ ID NO: 16) were pre-incubated at a concentration of 10 μM with HFF-1 cells (ATCC HS97FS. SCRC1041, and CCD1112SK). The cells were washed, then challenged with IL-28B (100 ng/ml) for 30 minutes. Peptides REV ([…]; SEQ ID NO:24), FKG ([…]; SEQ ID NO:25), and APP ([…]; SEQ ID NO:26) were pre-incubated for 2 hours with IL-28B, then added to HFF1 for 30 minutes. Proteins were harvested and STAT2 phosphorylation was determined by Western blot analysis. The effect of the peptides on CMV replication in HFF-1 cells was also tested. HFF-1 cells were pre-treated for 2 hours with peptides (10 μM) or control. CMV replication was determined 4 days later using plaque assays. The data are depicted in FIGS. 19 and 20. In FIG. 19, the data are from Western blot experiments. HFF11 cells were pre-treated with individual peptides for 2 hours, then challenged with IL28B for 30 minutes. Results were normalized to STAT2 and β-tubulin baseline expression. In FIG. 20, the data are from plaque assays. HFF1 cells were pre-treated with individual peptides for 2 hours, then infected with CMV Towne strain (multiplicity of infection 0.03). Plaque forming units (PFU) at day 4 were determined.

[1] = target: T1, binding of IL29 to IL-28R (Homo sapiens, UniProt Q8IU57); assay: ELISA assay, effect of peptides on binding of IL29 to IL-28R; settings: for inhibition of the binding of IL29 to IL-28R: increasing peptide concentrations
T1 sequence (Q8IU57 21-228 limits assumed): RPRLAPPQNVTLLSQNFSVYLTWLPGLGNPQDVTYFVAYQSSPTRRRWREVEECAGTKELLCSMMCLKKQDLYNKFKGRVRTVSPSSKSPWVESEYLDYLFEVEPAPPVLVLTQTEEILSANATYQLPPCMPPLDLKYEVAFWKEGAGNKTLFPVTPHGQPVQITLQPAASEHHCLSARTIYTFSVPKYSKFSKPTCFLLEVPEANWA

STAT1 phosphorylation = assay: STAT-1 phosphorylation in THP1-derived macrophages, flow cytometry; type: cell-based; settings: IL28B 100 ng/mL, peptide 1 at 10 μM for 90 min before IL28B, peptide 17 added together with IL28B
Description: The effect of peptide 1 and peptide 17 on STAT-1 phosphorylation in macrophages was tested using flow cytometry.
STAT1 phosphorylation is one of the earliest events that occur after the IFN receptor is activated. THP1 cells (a monocytic cell line) were stimulated for 3 days with phorbol-12-myristate-13-acetate (PMA) and then rested for another 5 days in standard cultivation methods (37° C. 5% CO2) with RPMI containing 10% fetal calf serum (FCS). After 3 days, the PMA was removed and fresh media added. This treatment induces maturation of THP1, such that the THP1 cells are induced to express macrophage markers (Daigneault et al. (2010) PLoSOne 5:e8668). Next, the cells were treated: (i) either for 90 min with peptide 1 at a concentration of 10 μM and then added IL28B at 100 ng/mL or (ii) peptide 17 was added directly together with IL28B. “Scramble p1” is a control peptide with the amino acid sequence of p1 scrambled. Scramble p17” is a control peptide with the amino acid sequence of p17 scrambled.

[2] = target: T2, binding of IL28A to IL-28R (Homo sapiens, UniProt Q8IU57); assay: ELISA assay, effect of peptides on binding of IL28A to IL-28R; settings: increasing peptide concentrations
T2 sequence (Q8IU57 21-228 limits assumed): T1 sequence (Q8IU57 21-228 limits assumed)

IL28R1 = target: T3, IL28R1 (Homo sapiens, UniProt Q8IU57); assay: Biacore assay, binding of interferon lambda ligands to IL28R1
T3 sequence (Q8IU57 21-520): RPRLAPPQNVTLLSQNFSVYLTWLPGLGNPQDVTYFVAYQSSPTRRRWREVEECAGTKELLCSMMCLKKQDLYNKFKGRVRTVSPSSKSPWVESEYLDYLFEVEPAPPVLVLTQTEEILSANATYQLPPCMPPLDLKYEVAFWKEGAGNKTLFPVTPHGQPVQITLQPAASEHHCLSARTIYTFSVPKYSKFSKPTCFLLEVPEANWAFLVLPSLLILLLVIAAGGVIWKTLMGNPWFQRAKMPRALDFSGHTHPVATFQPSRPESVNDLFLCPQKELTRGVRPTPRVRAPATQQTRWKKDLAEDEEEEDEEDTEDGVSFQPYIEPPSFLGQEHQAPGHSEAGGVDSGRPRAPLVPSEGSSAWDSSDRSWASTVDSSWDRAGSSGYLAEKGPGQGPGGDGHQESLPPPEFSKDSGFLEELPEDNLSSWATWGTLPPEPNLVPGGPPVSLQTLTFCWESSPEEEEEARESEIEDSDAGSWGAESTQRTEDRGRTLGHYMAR
From the text: FIG. 9 depicts binding affinity (KD values in PM) of ligands IL28A, IL28B, and IL29, and of peptides 1, 2, 6, 7, and 15-18, for IL28R1. […] In […], the KD values indicate differences between peptides.
FIG. 10 depicts the effect of peptides on binding of IL29 to IL-28R. Binding of IL29 was disrupted by addition of increasing peptide concentrations.

What does the source list for ASVTFNLFRLLTRDLKY [Peptide 6]?
reduction in STAT2-phosphorylation (STAT2 phosphorylation): 40%; inhibitory effect on CMV replication (viral growth curves, plaque assay) (CMV (Towne strain)): strong inhibitory effects; inhibition of the binding of IL29 to IL-28R [1]: highly potent

Which results are given for ASVTFNLFRLLTRDLNC [Peptide 7]?
reduction in STAT2-phosphorylation (STAT2 phosphorylation): 34%; lower CMV replication (plaque forming units) (CMV (Towne strain); CMV Towne MOI 0.03, day 4 after infection): 2.5 log10; inhibitory effect on CMV replication (viral growth curves, plaque assay) (CMV (Towne strain)): strong inhibitory effects

How did the “inhibitory effect on CMV replication (viral growth curves, plaque assay)” value (CMV (Towne strain)) turn out when ELASFKKARDALEESLKL [Peptide 1] was run?
Its value is “strong inhibitory effects”.

What about the STAT1 phosphorylation (STAT1 phosphorylation) of the same molecule?
Its STAT1 phosphorylation is “reduce STAT1 phosphorylation”.

What about the “IC50 for inhibition of IL29 binding, as excess of peptide over the natural ligand” value [1] of the same molecule?
Its value is 50 time excess of peptide over the natural ligand.

What about the “inhibition of the binding of IL29 to IL-28R” value [1] of the same molecule?
Its value is “highly potent”.

With KLKNWSCSSPVFPGNWDLRL [Peptide 17] as the molecule, how does the “inhibition of the binding of IL28A to IL-28R” value [2] read?
Its value is “potent”.

And the STAT1 phosphorylation (STAT1 phosphorylation)?
The STAT1 phosphorylation was “reduce STAT1 phosphorylation”.

LLKDCKCRSRLFPRTWDLRQ [Peptide 15] was tested. Which “inhibition of the binding of IL28A to IL-28R” value [2] did it give?
Its value is “potent”.

Which “inhibition of the binding of IL28A to IL-28R” value [2] does the source give for LLKDCRCHSRLFPRTWDLRQ [Peptide 16] here?
The value was “potent”.

With “MMCLKKQDLYNKFKG (MMCLKKQDLYNKFRG) [Peptide 9]” as the molecule, how does the “blocking of STAT-2 phosphorylation” value (STAT2 phosphorylation) read?
The value was “None of peptides REV, FKG, and APP blocked”.

For SEYLDYLFEVEPAPP [Peptide 10], which “blocking of STAT-2 phosphorylation” value (STAT2 phosphorylation) is on record?
The value was “None of peptides REV, FKG, and APP blocked”.

For VAYQSSPTRRRWREV [Peptide 8], which “blocking of STAT-2 phosphorylation” value (STAT2 phosphorylation) is on record?
The value was “None of peptides REV, FKG, and APP blocked”.

B1: IL29: polypeptide of about 200 amino acids which binds a heterodimeric IL-28 receptor complex (protein, listed as Homo sapiens)
chain: MAAAWTVVLVTLVLGLAVAGPVPTSKPTTTGKGCHIGRFKSLSPQELASFKKARDALEESLKLKNWSCSSPVFPGNWDLRLLQVRERPVALEAELALTLKVLEAAAGPALEDVLDQPLHTLHHILSQLQACIQPQPTAGPRPRGRLHHWLHRLQEAPKKESAGCLEASVTFNLFRLLTRDLKYVADGNLCLRTSTHPEST
For B1, which “binding affinity towards IL28R1” value (IL28R1) is on record?
Its value is “highest binding affinity of all Interferon lambdas”.

B2: IL28B: polypeptide of about 196 amino acids which binds a heterodimeric IL-28R complex (protein, listed as Homo sapiens)
chain: MTGDCMPVLVLMAAVLTVTGAVPVARLRGALPDARGCHIAQFKSLSPQELQAFKRAKDALEESLLLKDCKCRSRLFPRTWDLRQLQVRERPVALEAELALTLKVLEATADTDPALGDVLDQPLHTLHHILSQLRACIQPQPTAGPRTRGRLHHWLHRLQEAPKKESPGCLEASVTFNLFRLLTRDLNCVASGDLCV
For B2, which “binding affinity towards IL28R1” value (IL28R1) is on record?
The value was “significant lower binding affinity”.
